Measured values as given in patent US6133263A, “Endothelin antagonists with ether-linked groups” (Warner-Lambert Company, priority 1998, dated 2000).
Where two headings read alike, the source gives them in different places. One block for each compound: values may come before it. Where a SMILES comes first, the peptide text is derived from it. [ ]: non-standard residue; d: D form.

Columns and labels:
[1] = system: ischemic brain injury; details: rats, oral; cited from earlier work
[2] = target: T1, human ETB R (Homo sapiens, UniProt P24530); assay: [125I]-ET-1 radioligand binding assay, CHO-K1 cells expressing recombinant human ETB R (HERBA-B); details: CHO cell membranes, [125I]-ET-1 40 pM, 2 hours at 37° C
T1 construct: expressed in transfected cells; host or cells: CHO-K1 cells, membranes
T1 sequence (P24530 27-442): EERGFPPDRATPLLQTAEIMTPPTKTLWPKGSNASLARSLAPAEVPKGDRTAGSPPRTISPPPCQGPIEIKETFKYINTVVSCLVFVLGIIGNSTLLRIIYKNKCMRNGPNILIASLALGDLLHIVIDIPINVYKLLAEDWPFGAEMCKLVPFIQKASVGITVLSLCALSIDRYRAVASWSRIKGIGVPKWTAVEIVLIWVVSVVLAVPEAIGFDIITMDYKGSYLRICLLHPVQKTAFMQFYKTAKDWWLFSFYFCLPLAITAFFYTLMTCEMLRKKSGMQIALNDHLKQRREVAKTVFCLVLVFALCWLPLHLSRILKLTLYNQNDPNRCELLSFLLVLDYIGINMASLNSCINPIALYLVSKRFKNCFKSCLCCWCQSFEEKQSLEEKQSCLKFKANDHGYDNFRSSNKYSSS
From the text: The compounds of Formula I are valuable as antagonists of endothelin.
The following radioligand binding assays were used (Reynolds E. E.; Keiser J. A.; Haleen S. J.; Walker D. M.; Davis L. S.; Olszewski B.; Taylor D. G.; Hwang O.; Welch K. M.; Flynn M. A.; Thompson D. M.; et. al., J. Pharmacol. Exp. Ther., 1995;273:1410-1417).
The following cultured cells were used in binding experiments: CHO-KL cells expressing recombinant human ETB R (HERBA B), or Ltk- cells expressing human ETA R (HERBA A). […] Membranes were prepared from cultured cells by lysing cells in cold lysis buffer (5 mM HEPES, 2 mM EDTA, pH 7.4) and homogenizing with a Dounce "A" homogenizer. All of the homogenates were centrifuged at 30,000×g for 20 minutes at 4° C. Membrane pellets were resuspended in cold buffer containing 20 mM Tris, […], 200 μM Pefablock, 10 μM phosphoramidon, 10 μM leupeptin, and 1 μM pepstatin (pH 7.4) and frozen at -80° C. until use. Radioligand and competing ligands were prepared in binding buffer containing 20 mM Tris, 2 mM EDTA, and 0.1% BSA.
Competition binding assays were initiated by combining membranes, [^125 ]-ET-1 (40 pM) and competing ligand in a final volume of 250 μL and incubating for 2 hours at 37° C. The assay was terminated by filtration over Whatman GF/B filters that were presoaked with 50 mM Tris, pH 7.4, containing 0.2% BSA and 100 μM bacitracin. […] was defined as total binding minus nonspecific binding. Specific binding was analyzed by nonlinear least squared curve fitting (InPlot, GraphPad Software, San Diego, Calif.), and the estimated IC50 value was used to calculate Ki according to the method of Cheng and Prusoff (1973).

[3] = target: T2, human ETA R (Homo sapiens, UniProt P25101); assay: [125I]-ET-1 radioligand binding assay, Ltk- cells expressing human ETA R (HERBA-A); details: Ltk- cell membranes, [125I]-ET-1 40 pM, 2 hours at 37° C
T2 sequence (P25101 21-427): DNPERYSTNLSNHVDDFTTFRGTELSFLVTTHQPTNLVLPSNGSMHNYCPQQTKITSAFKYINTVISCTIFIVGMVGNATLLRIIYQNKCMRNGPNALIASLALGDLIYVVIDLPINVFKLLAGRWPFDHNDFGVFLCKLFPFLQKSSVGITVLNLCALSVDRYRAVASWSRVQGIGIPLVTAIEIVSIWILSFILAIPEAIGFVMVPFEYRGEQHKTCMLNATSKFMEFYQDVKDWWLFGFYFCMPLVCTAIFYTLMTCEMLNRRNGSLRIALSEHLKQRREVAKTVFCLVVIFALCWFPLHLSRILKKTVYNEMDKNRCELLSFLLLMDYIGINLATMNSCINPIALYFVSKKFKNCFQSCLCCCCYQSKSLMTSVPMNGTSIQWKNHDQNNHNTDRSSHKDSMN

[4] = system: endothelin-stimulated arachidonic acid release in rabbit renal artery vascular smooth muscle cells; assay: inhibition of ET-1 stimulated arachidonic acid release (AAR) in cultured rabbit renal artery vascular smooth muscle cells; format: cell-based; details: Oryctolagus cuniculus, 0.5 h, read-out: AAR-A
[5] = system: cerebral vasospasm; details: in vivo; cited from earlier work
[6] = system: ET-1 induced bronchoconstriction and tracheal smooth muscle contraction; details: allergic sheep; cited from earlier work
[7] = system: pulmonary vascular resistance and pulmonary arterial pressure; details: rat hypoxia model of hypertension; cited from earlier work
[8] = system: vasoconstriction of the basilar artery; details: after 7 days, canine two-hemorrhage model of SAH; cited from earlier work
[9] = system: acute renal ischemia; details: models of acute renal ischemia; cited from earlier work
[10] = system: ET-1-induced changes in gastric mucosal hemodynamics and gastric ulceration; details: in vivo; cited from earlier work
[11] = system: chronic heart failure; details: patients with chronic heart failure; cited from earlier work
[12] = oral; cited from earlier work
[13] = system: ischemic damage in the cerebral hemisphere; details: cats, middle cerebral artery occlusion, IV; cited from earlier work
[14] = system: prostate smooth muscle; details: in vivo; cited from earlier work
[15] = system: cerebral vasospasm; details: rat; cited from earlier work
[16] = system: neointima formation; details: rats, carotid artery balloon angioplasty; cited from earlier work

Compound: CCCOc1ccc2c(c1)C(c1ccc(OC)cc1OCCO)C(C(=O)O)C2c1ccc2c(c1)OCO2 (centres unmarked) [SB 217242]
ischemic brain injury [1]: Reduction of ischemic brain injury

IC50 [2]: 700 nM
IC50 [3]: 1.7 nM
Compound: COc1ccc(C2(OCCN3CCOCC3)OC(=O)C(c3cc(OC)c4c(c3)OCO4)=C2Cc2cc(OC)c(OC)c(OC)c2)cc1 (centres unmarked) [Example 5, 3-(7-Methoxy-benzo[1,3]dioxol-5-yl)-5-(4-methoxy-phenyl)-5-(2-morpholin-4-yl-ethoxy)-4-(3,4,5-trimethoxy-benzyl)-5H-furan-2-one]

Compound: COc1ccc(C2(OCCCS(=O)(=O)O)OC(=O)C(c3ccc4c(c3)OCO4)=C2Cc2cc(OC)c(OC)c(OC)c2)cc1 (centres unmarked)
IC50 [2]: 1900 nM
IC50 [3]: 0.15 nM
IC50 [4]: 0.3 nM

IC50 [2]: 2200 nM
IC50 [3]: 2.6 nM
Compound: COc1ccc(C2(OCCN(C)C)OC(=O)C(c3cc(OC)cc(OC)c3)=C2Cc2cc(OC)c(OC)c(OC)c2)cc1 (centres unmarked) [Example 6]

Compound: CC(C)C[C@@H]1NC(=O)[C@@H](C(C)C)NC(=O)[C@@H]2CCCN2C(=O)[C@@H](CC(=O)O)NC(=O)[C@@H](Cc2c[nH]c3ccccc23)NC1=O [BQ-123] (cyclo(L[dW][dD]P[dV]))
early cerebral vasospasm following SAH [5]: shown to prevent early cerebral vasospasm
ET-1 induced bronchoconstriction and tracheal smooth muscle contraction [6]: shown to block ET-1 induced bronchoconstriction and tracheal smooth muscle contraction
protection / increase in pulmonary vascular resistance and pulmonary arterial pressure [7]: provide protection in a rat hypoxia model of hypertension

IC50 [2]: > 2500 nM
IC50 [3]: 12 nM
Compound: COc1ccc(C2(OCCCN(C)C)OC(=O)C(c3ccc4c(c3)OCO4)=C2Cc2cc(OC)c(OC)c(OC)c2)cc1 (centres unmarked) [Example 3, 3-Benzo[1,3]dioxol-5-yl-5-(3-dimethylamino-propoxy)-5-(4-methoxy-phenyl)-4-(3,4,5-trimethoxy-benzyl)-5H-furan-2-one]

Compound: FR 139317
vasoconstriction of the basilar artery [8]: significantly inhibited the vasoconstriction of the basilar artery

Compound: COc1ccccc1Oc1c(NS(=O)(=O)c2ccc(C(C)(C)C)cc2)nc(-c2ncccn2)nc1OCCO [Bosentan]
efficacy in acute renal ischemia [9]: effective in models of acute renal ischemia
ET-1-induced changes in gastric mucosal hemodynamics and ET-1-induced gastric ulceration [10]: found to be an antagonist toward the ET-1-induced changes in gastric mucosal hemodynamics as well as on ET-1-induced gastric ulceration
protection / increase in pulmonary vascular resistance and pulmonary arterial pressure [7]: provide protection in a rat hypoxia model of hypertension
cardiac performance [11]: found to improve cardiac performance

IC50 [2]: 1080 nM
IC50 [3]: 0.3 nM
Compound: COc1ccc(C2(OCCN(C)C)OC(=O)C(c3ccc4c(c3)OCO4)=C2Cc2cc(OC)c(OC)c(OC)c2)cc1 (centres unmarked) [Example 4, 3-Benzo[1,3]dioxol-5-yl-5-(2-dimethylamino-ethoxy)-5-(4-methoxy-phenyl)-4-(3,4,5-trimethoxy-benzyl)-5H-furan-2-one]

Compound: Cc1noc(NS(=O)(=O)c2cccc3c(N(C)C)cccc23)c1C [5-(Dimethylamino)-N-(3,4-dimethyl-5-isoxazolyl)-1-naphthalenesulfonamide]
antihypertensive effect [12]: demonstrated an oral antihypertensive effect

Compound: COc1ccc(C2(O)OC(=O)C(c3ccc4c(c3)OCO4)=C2Cc2cc(OC)c(OC)c(OC)c2)cc1 (centres unmarked) [PD 156707]
protection / increase in pulmonary vascular resistance and pulmonary arterial pressure [7]: provide protection in a rat hypoxia model of hypertension
volume of ischemic damage in the cerebral hemisphere [13]: significantly reduced

Compound: COc1ccc(C2(O)OC(=O)C(c3ccc4c(c3)OCO4)=C2Cc2ccccc2)cc1 (centres unmarked) [PD 155080]
prostate smooth muscle function [14]: found to mediate prostate smooth muscle function in vivo

IC50 [2]: 12000 nM
IC50 [3]: 2.8 nM
IC50 ([4]; ET-1 0.3 nM, test compound 1 nM to 1 μM, 30 minutes): 10 nM
Compound: COc1ccc(C2(OCCN3CCOCC3)OC(=O)C(c3ccc4c(c3)OCO4)=C2Cc2cc(OC)c(OC)c(OC)c2)cc1 (centres unmarked) [Example 1]

Compound: COc1cccc(Oc2c(NS(=O)(=O)c3ccc(C(C)(C)C)cc3)ncnc2OCCO)c1 [Ro 46-2005]
early cerebral vasospasm following SAH [15]: shown to prevent early cerebral vasospasm

Compound: CCCOc1ccc2c(c1)C(c1ccc(OC)cc1OCC(=O)O)C(C(=O)O)C2c1ccc2c(c1)OCO2 (single isomer, unassigned) [SB 209670]
neointima formation [16]: found to ameliorate neointima formation
